According to patent US5081023A, “Antibiotic L53-18A and process for preparation thereof” (Toyo Yozo Company, Ltd., priority 1989, dated 1992):
Values after ≈ are worked out from the molar mass of the structure shown. Where two headings read alike, the source gives them in different places.

What was measured:
[1] = Distinction of acidic or basic; type: physicochemical
[2] = system: Streptococcus agalactiae 1020; experiment: Antimicrobial activity (MIC), Table 1; type: cell-based; conditions: read-out: Minimum growth inhibitory concentration
[3] = system: Staphylococcus aureus FDA 209P JC-1; experiment: Antimicrobial activity (MIC), Table 1; type: cell-based; conditions: FDA209P, read-out: Minimum growth inhibitory concentration
[4] = system: Streptococcus pyogenes N.Y.5; experiment: Antimicrobial activity (MIC), Table 1; type: cell-based; conditions: read-out: Minimum growth inhibitory concentration
[5] = system: Bacillus subtilis ATCC 6633; experiment: Antimicrobial activity (MIC), Table 1; type: cell-based; conditions: ATCC6633, read-out: Minimum growth inhibitory concentration
[6] = system: Escherichia coli NIHJ JC-2; experiment: Antimicrobial activity (MIC), Table 1; type: cell-based; conditions: NIHJJC2, read-out: Minimum growth inhibitory concentration
[7] = system: Klebsiella pneumoniae NCTC 9632; experiment: Antimicrobial activity (MIC), Table 1; type: cell-based; conditions: NCTC9632, read-out: Minimum growth inhibitory concentration
[8] = Solubility; type: physicochemical
[9] = system: mice; experiment: Acute toxicity; type: in vivo; conditions: ip, 10 per group, mice surviving at this dose
Method: (16) Acute toxicity: 300 mg/kg (ip) with surviving mice (10 mice per one group).

[10] = system: Staphylococcus epidermidis ATCC 27626; experiment: Antimicrobial activity (MIC), Table 1; type: cell-based; conditions: ATCC27626, read-out: Minimum growth inhibitory concentration
[11] = system: Pseudomonas aeruginosa IAM 1095; experiment: Antimicrobial activity (MIC), Table 1; type: cell-based; conditions: IAM1095, read-out: Minimum growth inhibitory concentration
[12] = system: Sarcina lutea ATCC 9341; experiment: Antimicrobial activity (MIC), Table 1; type: cell-based; conditions: Micrococcus luteus, ATCC9341, read-out: Minimum growth inhibitory concentration
[13] = system: Gram-positive bacteria; experiment: Antibacterial activity; type: cell-based
[14] = system: Saccharopolyspora sp. L53-18; experiment: Resistance to lysozyme; type: cell-based; conditions: producing strain L53-18
Text: (8) Resistance to lysozyme: sensitive [Inter. J. System. Bacteriol. 27: 176-178 (1977)]

[15] = system: Saccharopolyspora sp. L53-18; experiment: Resistance to antibiotic (MIC), Table 3; type: cell-based
Text: [according to J. Antibiot. 32: 180-186 (1976)]

[16] = resistance of producing strain L53-18 to antibiotics, read-out: MIC
[17] = resistance of producing strain L53-18 to antibiotics

## CC[C@H]1OC(=O)[C@H](C)[C@@H](O[C@H]2C[C@@](C)(OC)[C@@H](O)[C@H](C)O2)[C@H](C)[C@@H](O[C@@H]2O[C@H](C)C[C@H](N(C)C)[C@H]2O)[C@](C)(O)C[C@@H](C)C2=C(C)C(=O)[C@]1(C)O2 [Antibiotic L53-18A]
[1]
  Distinction of acidic or basic: basic
[2]
  MIC: < 0.05 µg/mL
[3]
  MIC: 0.2 µg/mL (≈ 0.28 µM)
[4]
  MIC: < 0.05 µg/mL
[5]
  MIC: < 0.05 µg/mL
[6]
  MIC: > 100 µg/mL
[7]
  MIC: > 100 µg/mL
[8]
  Solubility: Soluble in methanol, ethanol, acetone, ethyl acetate, chloroform, benzene and acidic water
[9]
  Acute toxicity (dose with surviving mice): 300 mg/kg
[10]
  MIC: 0.2 µg/mL (≈ 0.28 µM)
[11]
  MIC: > 100 µg/mL
[12]
  MIC: < 0.05 µg/mL
[13]
  antibacterial activity to Gram-positive bacteria: shows antibacterial activity to Gram-positive bacteria

## lysozyme
[14]
  Resistance to lysozyme: sensitive

## [H]/N=C(/N)N[C@H]1[C@H](O)[C@@H](O)[C@H](O[C@@H]2O[C@@H](C)[C@](O)(C=O)[C@H]2O[C@@H]2O[C@@H](CO)[C@H](O)[C@@H](O)[C@@H]2NC)[C@@H](N/C(N)=N\[H])[C@@H]1O [Streptomycin]
[15]; [16]
  MIC: 31 µg/mL (≈ 53.3 µM)

## Neomycin
[15]; [17]
  MIC: 63 µg/mL

## CN[C@@H]1[C@H](O)[C@H](NC)[C@H]2O[C@@]3(O)C(=O)C[C@@H](C)O[C@H]3O[C@@H]2[C@H]1O [Spectinomycin]
[15]; [16]
  MIC: > 1000 µg/mL

## Gentamicin
[15]; [17]
  MIC: 16 µg/mL

## CCCC(=O)O[C@H]1[C@H](C)O[C@@H](O[C@H]2[C@H](N(C)C)[C@@H](O)[C@H](O[C@H]3[C@@H](CC=O)C[C@@H](C)[C@@H](O)/C=C/C=C/C[C@@H](C)OC(=O)C[C@@H](O)[C@@H]3OC)O[C@@H]2C)C[C@@]1(C)O [Leucomycin A5]
[15]; [16]
  MIC: > 1000 µg/mL

## NC[C@@H]1O[C@H](O[C@H]2[C@@H](O)[C@H](O[C@@H]3[C@@H](O)[C@H](N)C[C@H](N)[C@H]3O[C@H]3O[C@H](CO)[C@@H](O)[C@H](O)[C@H]3N)O[C@@H]2CO)[C@H](N)[C@@H](O)[C@@H]1O [Paromomycin]
[15]; [16]
  MIC: 31 µg/mL (≈ 50.4 µM)

## NC[C@H]1O[C@H](O[C@H]2[C@H](O)[C@@H](O[C@H]3O[C@H](CO)[C@@H](O)[C@H](N)[C@H]3O)[C@H](N)C[C@@H]2N)[C@H](O)[C@@H](O)[C@@H]1O [Kanamycin]
[15]
  MIC: 63 µg/mL (≈ 130 µM)

## CO[C@H]1/C=C/O[C@@]2(C)Oc3c(C)c(O)c4c(O)c(c(/C=N/N5CCN(C)CC5)c(O)c4c3C2=O)NC(=O)/C(C)=C\C=C\[C@H](C)[C@H](O)[C@@H](C)[C@@H](O)[C@@H](C)[C@H](OC(C)=O)[C@@H]1C [Rifampicin]
[15]; [16]
  MIC: < 16 µg/mL
